From patent publication US9493448B2, “Cycloalkane derivatives” (Daiichi Sankyo Company, Limited, priority 2012, dated 2016)
pIC50: −log10 of the molar value.

Key:
[1] = test system: mice and rats affected by thermal hyperalgesia; experiment: Thermal hyperalgesia assay; assay type: in vivo; conditions: oral administration, constant dose, against the vehicle treatment group; latency to escape behaviors after thermal stimulation of hind paw;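 also: measurement times set by the study director and not disclosed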
[2] = biological target: hNav 1.7 (Homo sapiens (Human), UniProt Q15858); experiment: Electrophysiological evaluation, automated patch clamp IonWorks Quattro (Population Patch Clamp mode); assay type: cell-based; conditions: HEK293A cells stably expressing hNav 1.7/β1/β2; response to second depolarization pulse, pre-pulse potential set to V1/2; read-out: hNav1.7 IC50
hNav 1.7, sequence (Q15858 whole entry): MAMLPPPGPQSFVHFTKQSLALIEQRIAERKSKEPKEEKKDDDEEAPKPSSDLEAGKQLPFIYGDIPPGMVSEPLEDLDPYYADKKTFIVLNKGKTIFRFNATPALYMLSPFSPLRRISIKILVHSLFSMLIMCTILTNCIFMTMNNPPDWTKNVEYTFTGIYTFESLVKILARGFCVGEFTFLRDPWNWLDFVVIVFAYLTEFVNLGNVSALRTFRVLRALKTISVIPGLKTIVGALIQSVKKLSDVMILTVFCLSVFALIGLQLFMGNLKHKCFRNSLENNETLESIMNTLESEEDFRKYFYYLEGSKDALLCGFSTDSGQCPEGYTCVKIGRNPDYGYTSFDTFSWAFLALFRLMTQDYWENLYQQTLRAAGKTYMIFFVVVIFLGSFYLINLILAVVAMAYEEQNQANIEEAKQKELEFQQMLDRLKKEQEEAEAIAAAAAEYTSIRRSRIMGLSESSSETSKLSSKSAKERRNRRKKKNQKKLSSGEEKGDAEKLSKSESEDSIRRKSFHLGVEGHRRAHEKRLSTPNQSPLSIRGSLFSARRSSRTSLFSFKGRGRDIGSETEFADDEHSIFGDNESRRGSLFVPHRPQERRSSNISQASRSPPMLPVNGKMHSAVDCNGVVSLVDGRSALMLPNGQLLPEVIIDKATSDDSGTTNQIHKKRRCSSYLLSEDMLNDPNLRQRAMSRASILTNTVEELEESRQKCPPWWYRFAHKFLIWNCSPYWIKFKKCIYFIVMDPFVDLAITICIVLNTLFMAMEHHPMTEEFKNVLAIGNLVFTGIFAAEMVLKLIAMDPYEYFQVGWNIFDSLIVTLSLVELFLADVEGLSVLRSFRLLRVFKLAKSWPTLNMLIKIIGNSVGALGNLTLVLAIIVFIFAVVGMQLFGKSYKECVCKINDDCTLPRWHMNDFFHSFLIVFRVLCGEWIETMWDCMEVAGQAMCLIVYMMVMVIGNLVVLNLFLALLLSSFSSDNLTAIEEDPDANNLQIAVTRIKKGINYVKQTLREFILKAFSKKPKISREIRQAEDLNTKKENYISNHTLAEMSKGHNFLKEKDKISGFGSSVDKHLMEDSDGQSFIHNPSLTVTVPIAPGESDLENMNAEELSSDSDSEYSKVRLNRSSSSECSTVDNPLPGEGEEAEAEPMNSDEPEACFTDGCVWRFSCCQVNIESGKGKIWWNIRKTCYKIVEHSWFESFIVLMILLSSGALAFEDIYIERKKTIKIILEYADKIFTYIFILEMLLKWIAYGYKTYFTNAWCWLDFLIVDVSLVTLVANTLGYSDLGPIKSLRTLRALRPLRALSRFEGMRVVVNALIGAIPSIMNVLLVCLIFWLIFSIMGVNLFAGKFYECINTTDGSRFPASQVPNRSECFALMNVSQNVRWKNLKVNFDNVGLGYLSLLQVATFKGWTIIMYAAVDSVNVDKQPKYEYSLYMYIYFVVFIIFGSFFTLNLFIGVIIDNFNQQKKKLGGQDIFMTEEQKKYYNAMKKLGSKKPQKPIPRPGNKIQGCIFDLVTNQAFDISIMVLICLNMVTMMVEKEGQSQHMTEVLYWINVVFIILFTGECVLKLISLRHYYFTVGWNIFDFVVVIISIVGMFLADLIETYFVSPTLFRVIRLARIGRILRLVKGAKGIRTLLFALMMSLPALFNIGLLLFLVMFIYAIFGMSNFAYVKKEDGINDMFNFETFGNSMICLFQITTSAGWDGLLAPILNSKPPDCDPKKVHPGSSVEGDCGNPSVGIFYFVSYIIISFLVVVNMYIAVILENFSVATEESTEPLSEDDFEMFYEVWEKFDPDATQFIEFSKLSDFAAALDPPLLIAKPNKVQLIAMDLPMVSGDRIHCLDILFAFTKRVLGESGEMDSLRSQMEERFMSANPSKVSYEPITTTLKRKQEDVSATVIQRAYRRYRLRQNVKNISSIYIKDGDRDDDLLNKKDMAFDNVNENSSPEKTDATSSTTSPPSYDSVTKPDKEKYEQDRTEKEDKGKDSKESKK
hNav 1.7, sequence (Q07699 19-218 partner): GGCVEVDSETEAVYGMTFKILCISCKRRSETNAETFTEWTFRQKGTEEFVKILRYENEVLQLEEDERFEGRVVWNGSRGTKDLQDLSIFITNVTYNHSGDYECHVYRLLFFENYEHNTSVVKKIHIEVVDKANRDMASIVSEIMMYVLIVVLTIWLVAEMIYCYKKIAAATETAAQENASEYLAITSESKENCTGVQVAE
hNav 1.7, sequence (O60939 30-215 partner): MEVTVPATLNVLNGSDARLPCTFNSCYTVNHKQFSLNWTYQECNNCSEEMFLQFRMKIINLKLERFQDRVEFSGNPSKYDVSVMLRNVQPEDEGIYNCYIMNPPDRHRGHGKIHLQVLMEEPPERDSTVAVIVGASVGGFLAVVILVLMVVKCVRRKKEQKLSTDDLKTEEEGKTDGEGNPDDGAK

| Structure (SMILES) | Ratio of improving pain score (%) [1] | pIC50 [2] |
| --- | --- | --- |
| CCn1nccc1[C@H]1CCC[C@@H]1Oc1ccc(S(=O)(=O)Nc2ccncn2)c(F)c1F (relative stereo) [Example 38, 4-{[(1S*,2R*)-2-(1-Ethyl-1H-pyrazol-5-yl)cyclopentyl]oxy}-2,3-difluoro-N-(pyrimidin-4-yl)benzenesulfonamide] | A (“A” when the rate was 61 to 100%) | 6.62 |
| Cn1nccc1[C@H]1CCCC[C@@H]1Oc1ccc(S(=O)(=O)Nc2ccncn2)c(F)c1F (relative stereo) [Example 40, 2,3-Difluoro-4-{[(1S*,2R*)-2-(1-methyl-1H-pyrazol-5-yl)cyclohexyl]oxy}-N-(pyrimidin-4-yl)benzenesulfonamide] | A (“A” when the rate was 61 to 100%) | 6.48 |
| CCn1nccc1[C@H]1CCCC[C@@H]1Oc1ccc(S(=O)(=O)Nc2ccncn2)c(F)c1F (relative stereo) [Example 41, 4-{[(1S*,2R*)-2-(1-Ethyl-1H-pyrazol-5-yl)cyclohexyl]oxy}-2,3-difluoro-N-(pyrimidin-4-yl)benzenesulfonamide] | B (“B” when the rate was 31 to 60%) | 6.80 |
| Cn1nccc1[C@H]1CCCCC[C@@H]1Oc1cc(F)c(S(=O)(=O)Nc2ccncn2)cc1F (relative stereo) [Example 42, 2,5-Difluoro-4-{[(1S*,2R*)-2-(1-methyl-1H-pyrazol-5-yl)cycloheptyl]oxy}-N-(pyrimidin-4-yl)benzenesulfonamide] | C (“C” when the rate was 0 to 30%) | 7.04 |
| Cn1nccc1[C@H]1CCCC[C@@H]1Oc1ccc(S(=O)(=O)Nc2ccncn2)c(F)c1 (relative stereo) [Example 44, 2-Fluoro-4-{[(1S*,2R*)-2-(1-methyl-1H-pyrazol-5-yl)cyclohexyl]oxy}-N-(pyrimidin-4-yl)benzenesulfonamide] | C (“C” when the rate was 0 to 30%) | 6.48 |
| CCn1nccc1[C@H]1CCCC[C@@H]1Oc1ccc(S(=O)(=O)Nc2ccncn2)c(F)c1 (relative stereo) [Example 45, 4-{[(1S*,2R*)-2-(1-Ethyl-1H-pyrazol-5-yl)cyclohexyl]oxy}-2-fluoro-N-(pyrimidin-4-yl)benzenesulfonamide] | C (“C” when the rate was 0 to 30%) | 6.72 |
| Cn1nccc1[C@H]1CCC(F)(F)C[C@@H]1Oc1cc(F)c(S(=O)(=O)Nc2ccncn2)cc1F (relative stereo) [Example 47, 4-{[(1S*,2R*)-5,5-Difluoro-2-(1-methyl-1H-pyrazol-5-yl)cyclohexyl]oxy}-2,5-difluoro-N-(pyrimidin-4-yl)benzenesulfonamide] | A (“A” when the rate was 61 to 100%) | 6.92 |
| CCn1nccc1[C@H]1CCC[C@@H]1Oc1cc(F)c(S(=O)(=O)Nc2ccncn2)c(F)c1 (relative stereo) [Example 50, 4-{[(1S*,2R*)-2-(1-Ethyl-1H-pyrazol-5-yl)cyclopentyl]oxy}-2,6-difluoro-N-(pyrimidin-4-yl)benzenesulfonamide] | B (“B” when the rate was 31 to 60%) | 7.33 |
| Cn1nccc1[C@H]1CCCCC[C@@H]1Oc1ccc(S(=O)(=O)Nc2ccncn2)c(F)c1F (relative stereo) [Example 51, 2,3-Difluoro-4-{[(1S*,2R*)-2-(1-methyl-1H-pyrazol-5-yl)cycloheptyl]oxy}-N-(pyrimidin-4-yl)benzenesulfonamide] | B (“B” when the rate was 31 to 60%) | 6.12 |
| Cc1cc(S(=O)(=O)Nc2ccncn2)ccc1O[C@H]1CCC[C@@H]1c1ccnn1C (relative stereo) [Example 52, 3-Methyl-4-{[(1S*,2R*)-2-(1-methyl-1H-pyrazol-5-yl)cyclopentyl]oxy}-N-(pyrimidin-4-yl)benzenesulfonamide] | B (“B” when the rate was 31 to 60%) | 7.08 |
| Cc1cc(S(=O)(=O)Nc2ccncn2)ccc1O[C@H]1CCCC[C@@H]1c1ccnn1C (relative stereo) [Example 54, 3-Methyl-4-{[(1S*,2R*)-2-(1-methyl-1H-pyrazol-5-yl)cyclohexyl]oxy}-N-(pyrimidin-4-yl)benzenesulfonamide] | C (“C” when the rate was 0 to 30%) | 7.41 |
| Cn1nccc1[C@H]1CCCCC[C@@H]1Oc1ccc(S(=O)(=O)Nc2ccncn2)cc1C#N (relative stereo) [Example 55, 3-Cyano-4-{[(1S*,2R*)-2-(1-methyl-1H-pyrazol-5-yl)cycloheptyl]oxy}-N-(pyrimidin-4-yl)benzenesulfonamide] | C (“C” when the rate was 0 to 30%) | 7.41 |
| Cn1nccc1[C@H]1CCCC[C@@H]1Oc1ccc(S(=O)(=O)Nc2ccncn2)cc1C#N (relative stereo) [Example 56, 3-Cyano-4-{[(1S*,2R*)-2-(1-methyl-1H-pyrazol-5-yl)cyclohexyl]oxy}-N-(pyrimidin-4-yl)benzenesulfonamide] | B (“B” when the rate was 31 to 60%) | 6.60 |
| Cc1cc(S(=O)(=O)Nc2ccncn2)ccc1O[C@H]1CCCCC[C@@H]1c1ccnn1C (relative stereo) [Example 57, 3-Methyl-4-{[(1S*,2R*)-2-(1-methyl-1H-pyrazol-5-yl)cycloheptyl]oxy}-N-(pyrimidin-4-yl)benzenesulfonamide] | B (“B” when the rate was 31 to 60%) | 7.12 |
| Cn1nccc1[C@H]1CCCCC[C@@H]1Oc1ccc(S(=O)(=O)Nc2ccncn2)c(F)c1 (relative stereo) [Example 58, 2-Fluoro-4-{[(1S*,2R*)-2-(1-methyl-1H-pyrazol-5-yl)cycloheptyl]oxy}-N-(pyrimidin-4-yl)benzenesulfonamide] | B (“B” when the rate was 31 to 60%) | 6.18 |
| CCn1nccc1[C@H]1CCCC[C@@H]1Oc1cc(F)c(S(=O)(=O)Nc2ccncn2)c(F)c1 (relative stereo) [Example 59, 4-{[(1S*,2R*)-2-(1-Ethyl-1H-pyrazol-5-yl)cyclohexyl]oxy}-2,6-difluoro-N-(pyrimidin-4-yl)benzenesulfonamide] | C (“C” when the rate was 0 to 30%) | 7.51 |
| Cn1nccc1[C@H]1CCCCC[C@@H]1Oc1cc(F)c(S(=O)(=O)Nc2ccncn2)cc1Cl (relative stereo) [Example 60, 5-Chloro-2-fluoro-4-{[(1S*,2R*)-2-(1-methyl-1H-pyrazol-5-yl)cycloheptyl]oxy}-N-(pyrimidin-4-yl)benzenesulfonamide] | C (“C” when the rate was 0 to 30%) | 7.43 |
| Cn1nccc1[C@H]1CCC[C@@H]1Oc1cc(F)c(S(=O)(=O)Nc2ccncn2)cc1C#N (relative stereo) [Example 62, 5-Cyano-2-fluoro-4-{[(1S*,2R*)-2-(1-methyl-1H-pyrazol-5-yl)cyclopentyl]oxy}-N-(pyrimidin-4-yl)benzenesulfonamide] | B (“B” when the rate was 31 to 60%) | 6.92 |
| Cc1c(O[C@H]2CCC[C@@H]2c2ccnn2C)ccc(S(=O)(=O)Nc2ccncn2)c1F (relative stereo) [Example 65, 2-Fluoro-3-methyl-4-{[(1S*,2R*)-2-(1-methyl-1H-pyrazol-5-yl)cyclopentyl]oxy}-N-(pyrimidin-4-yl)benzenesulfonamide] | B (“B” when the rate was 31 to 60%) | 6.89 |
| Cc1c(O[C@H]2CCCC[C@@H]2c2ccnn2C)ccc(S(=O)(=O)Nc2ccncn2)c1F (relative stereo) [Example 66, 2-Fluoro-3-methyl-4-{[(1S*,2R*)-2-(1-methyl-1H-pyrazol-5-yl)cyclohexyl]oxy}-N-(pyrimidin-4-yl)benzenesulfonamide] | A (“A” when the rate was 61 to 100%) | 7.77 |
| Cn1nccc1[C@H]1CC(C)(C)CC[C@@H]1Oc1cc(F)c(S(=O)(=O)Nc2ccncn2)cc1F (relative stereo) [Example 67, 4-{[(1S*,2R*)-4,4-Dimethyl-2-(1-methyl-1H-pyrazol-5-yl)cyclohexyl]oxy}-2,5-difluoro-N-(pyrimidin-4-yl)benzenesulfonamide] | C (“C” when the rate was 0 to 30%) | 7.37 |
| Cc1cc(S(=O)(=O)Nc2ccncn2)c(F)cc1O[C@H]1CCCC[C@@H]1c1c[nH]nc1N (relative stereo) [Example 68, 4-{[(1S*,2R*)-2-(3-Amino-1H-pyrazol-4-yl)cyclohexyl]oxy}-2-fluoro-5-methyl-N-(pyrimidin-4-yl)benzenesulfonamide] | B (“B” when the rate was 31 to 60%) | 7.07 |
| Nc1ncccc1[C@H]1CCCC[C@@H]1Oc1cc(F)c(S(=O)(=O)Nc2ccncn2)cc1F (relative stereo) [Example 69, 4-{[(1S*,2R*)-2-(2-Aminopyridin-3-yl)cyclohexyl]oxy}-2,5-difluoro-N-(pyrimidin-4-yl)benzenesulfonamide] | B (“B” when the rate was 31 to 60%) | 7.06 |
| Nc1n[nH]cc1[C@H]1CCCC[C@@H]1Oc1cc(F)c(S(=O)(=O)Nc2ccncn2)cc1Cl (relative stereo) [Example 71, 4-{[(1S*,2R*)-2-(3-Amino-1H-pyrazol-4-yl)cyclohexyl]oxy}-5-chloro-2-fluoro-N-(pyrimidin-4-yl)benzenesulfonamide] | A (“A” when the rate was 61 to 100%) | 6.82 |
| Cn1nccc1[C@H]1CCC(C)(C)C[C@@H]1Oc1cc(F)c(S(=O)(=O)Nc2ccncn2)cc1F (relative stereo) [Example 72, 4-{[(1S*,2R*)-5,5-Dimethyl-2-(1-methyl-1H-pyrazol-5-yl)cyclohexyl]oxy}-2,5-difluoro-N-(pyrimidin-4-yl)benzenesulfonamide] | C (“C” when the rate was 0 to 30%) | 7.44 |
